From paper PMC5085100, “Conjugation to the sigma-2 ligand SV119 overcomes uptake blockade and converts dm-Erastin into a potent pancreatic cancer therapeutic” (Oncotarget, 2016)

Molecular target: T1, cystine/glutamate antiporter (system xc-) (Homo sapiens, UniProt Q9UPY5)
T1 construct: gene SLC7A11
T1 sequence (Q9UPY5 1-501): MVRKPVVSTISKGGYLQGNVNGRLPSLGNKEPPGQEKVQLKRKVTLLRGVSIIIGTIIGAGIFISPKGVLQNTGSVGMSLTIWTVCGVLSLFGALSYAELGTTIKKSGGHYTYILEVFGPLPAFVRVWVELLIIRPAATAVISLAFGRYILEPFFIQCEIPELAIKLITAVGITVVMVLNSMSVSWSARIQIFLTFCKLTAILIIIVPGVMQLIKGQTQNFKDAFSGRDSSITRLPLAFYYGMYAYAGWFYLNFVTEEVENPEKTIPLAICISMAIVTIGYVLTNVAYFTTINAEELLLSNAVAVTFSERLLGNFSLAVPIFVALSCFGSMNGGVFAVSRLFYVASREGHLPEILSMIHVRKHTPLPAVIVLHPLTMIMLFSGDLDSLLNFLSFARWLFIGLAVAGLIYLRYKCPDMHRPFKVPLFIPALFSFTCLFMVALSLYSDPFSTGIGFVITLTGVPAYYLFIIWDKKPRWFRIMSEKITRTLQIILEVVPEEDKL
T1 sequence (P08195 2-529 partner): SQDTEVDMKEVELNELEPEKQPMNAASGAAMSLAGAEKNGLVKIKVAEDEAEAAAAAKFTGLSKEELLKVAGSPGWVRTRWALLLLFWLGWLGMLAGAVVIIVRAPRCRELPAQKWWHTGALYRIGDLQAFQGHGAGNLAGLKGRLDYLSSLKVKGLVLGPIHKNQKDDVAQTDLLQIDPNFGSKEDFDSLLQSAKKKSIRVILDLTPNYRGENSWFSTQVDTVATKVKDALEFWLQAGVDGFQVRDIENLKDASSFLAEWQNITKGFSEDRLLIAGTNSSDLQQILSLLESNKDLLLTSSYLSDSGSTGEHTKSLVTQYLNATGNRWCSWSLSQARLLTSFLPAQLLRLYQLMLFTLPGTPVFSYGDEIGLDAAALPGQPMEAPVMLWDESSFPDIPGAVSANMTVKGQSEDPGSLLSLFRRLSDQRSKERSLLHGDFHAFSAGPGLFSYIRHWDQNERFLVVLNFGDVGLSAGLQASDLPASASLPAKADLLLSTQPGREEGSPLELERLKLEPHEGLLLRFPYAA
Experiment: […]-cystine uptake inhibition in AsPC-1 cells, […] min at […]
Format: cell-based
Details: ASPC1; read-out: % blockade at 200 μM

## CCOc1ccccc1-n1c(CN2CCN(C(=O)COc3ccc(CNCCCCCCN4C5CCCC4CC(OC(=O)Nc4cc(C)ccc4OC)C5)cc3)CC2)nc2ccccc2c1=O (stereo not shown) [SW V-49]
  inhibition at 200 µM: 85%
